Measurements published in patent US20030133931A1 (priority 2001, published 2003).

How the values were obtained:
[1] = biological target: T1, human histamine H4 receptor (Homo sapiens, UniProt Q9H3N8); test: biochemical
[2] = biological target: rat histamine H4 receptor (Rattus norvegicus, UniProt Q91ZY1); test: biochemical
[3] = tested on: Zymosan Induced Peritonitis in Mice; settings: for effect on PMN influx: H4 ANTAG #1 10 mg/kg, Imetit 5 mg/kg, thioperamide 5 mg/kg, 4 h after zymosan; for PMN (10^6 per mouse) Mean: group mean, s.c. at -15 min and +2 h (H4 ANTAG #1 10 mg/kg; Imetit, Thioperamide 5 mg/kg), lavage 4 h after zymosan
[4] = biological target: guinea pig histamine H4 receptor (Cavia porcellus, UniProt Q91ZY3); test: biochemical
[5] = tested on: Croton Oil Induced Topical Inflammation in Mice; settings: 6 h after croton oil
[6] = biological target: T1, human histamine H4 receptor; settings: histamine 100 pM-100 uM; forskolin 3 uM; SK-N-MC cells
[7] = biological target: T1, human histamine H4 receptor; settings: SK-N-MC or COS7 cells expressing human histamine H4 receptor

T1 sequence (Q9H3N8 whole entry): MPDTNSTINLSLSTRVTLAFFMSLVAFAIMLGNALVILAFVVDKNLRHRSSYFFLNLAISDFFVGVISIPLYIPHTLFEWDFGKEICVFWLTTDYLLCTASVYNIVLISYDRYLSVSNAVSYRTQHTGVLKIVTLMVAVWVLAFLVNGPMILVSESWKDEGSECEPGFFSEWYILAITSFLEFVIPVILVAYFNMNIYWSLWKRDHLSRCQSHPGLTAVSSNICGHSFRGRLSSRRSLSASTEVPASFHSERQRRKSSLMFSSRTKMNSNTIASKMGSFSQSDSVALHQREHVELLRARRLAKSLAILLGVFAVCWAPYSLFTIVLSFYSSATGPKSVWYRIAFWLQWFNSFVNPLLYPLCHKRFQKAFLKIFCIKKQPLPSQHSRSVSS
Chain of guinea pig histamine H4 receptor (Q91ZY3 1-389): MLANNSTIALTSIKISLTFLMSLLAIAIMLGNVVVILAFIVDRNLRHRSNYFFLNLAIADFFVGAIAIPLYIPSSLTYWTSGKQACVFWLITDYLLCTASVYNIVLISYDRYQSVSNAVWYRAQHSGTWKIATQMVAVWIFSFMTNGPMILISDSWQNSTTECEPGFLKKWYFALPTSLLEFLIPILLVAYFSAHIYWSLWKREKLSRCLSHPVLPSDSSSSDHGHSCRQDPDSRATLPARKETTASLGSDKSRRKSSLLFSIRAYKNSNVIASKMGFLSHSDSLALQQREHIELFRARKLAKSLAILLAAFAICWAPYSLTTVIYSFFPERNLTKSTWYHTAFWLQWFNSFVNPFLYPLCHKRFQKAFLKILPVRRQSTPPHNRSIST
Chain of rat histamine H4 receptor (Q91ZY1 whole entry): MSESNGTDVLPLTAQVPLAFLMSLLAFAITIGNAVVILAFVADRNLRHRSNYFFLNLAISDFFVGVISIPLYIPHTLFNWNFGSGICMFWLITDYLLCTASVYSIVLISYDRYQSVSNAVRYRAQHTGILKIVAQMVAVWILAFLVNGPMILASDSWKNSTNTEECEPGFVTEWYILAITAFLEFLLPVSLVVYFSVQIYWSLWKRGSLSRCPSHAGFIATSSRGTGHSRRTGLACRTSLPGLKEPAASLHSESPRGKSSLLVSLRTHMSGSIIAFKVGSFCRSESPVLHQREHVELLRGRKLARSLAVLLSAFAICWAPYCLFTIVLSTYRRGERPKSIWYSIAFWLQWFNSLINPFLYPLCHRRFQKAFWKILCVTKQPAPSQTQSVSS

Molecule | Ki [1] [nM] | Ki [2] [nM] | Ki [4] [nM] | further results
N=C(N)SCCc1cnc[nH]1 [Imetit] | 1.3 | 6.8 | 30 | effect on PMN influx [3]: inactive; PMN (10^6 per mouse) Mean [3]: 17.3 10^6 per mouse
COc1ccc2c(c1)c(CC(=O)O)c(C)n2C(=O)c1ccc(Cl)cc1 [Indomethacin] | – | – | – | Difference in ear thickness (×0.01 mm) Mean ([5]; group mean, s.c. ×3 (H4 ANTAG #1 10 mg/kg; Indomethacin 30 mg/kg)): 10.0 ×0.01 mm; % inhib (ear swelling) ([5]; vs vehicle, s.c. ×3): (−40%)
S=C(NC1CCCCC1)N1CCC(c2cnc[nH]2)CC1 [Thioperamide] | – | – | 83 | effect on PMN influx [3]: significant inhibitory effect; PMN (10^6 per mouse) Mean [3]: 9.3 10^6 per mouse; % inhib (PMN) ([3]; vs PBS + zymosan, 4 h, doses as in Table 1, s.c.): (−46%)
CNCCc1c[nH]cn1 [N-methylhistamine] | 48 | 552 | 220 | –
NCCc1c[nH]cn1 [Histamine] | – | – | 27 | activation of recombinant human histamine H4 receptor (decrease of forskolin-raised cAMP), words [6]: specifically activated
^3H-histamine | – | – | – | ^3H-histamine binding [7]: high affinity
NC(=NCc1ccc(Cl)cc1)SCCCc1cnc[nH]1 [Clobenpropit] | 4.9 | 63 | 3.6 | –
